Results from the SangsterLogP compilation.

Key:
[1] = method code SF-HPLC, from DOI: 10.1016/j.ejmech.2008.06.022, PMID: 18687506; conditions: pH 7.4
[2] = method code SF-RC, from DOI: 10.1016/j.bmc.2005.04.014, PMID: 15911305; conditions: pH 7.4
[3] = from Gehmann, K., Nyfeler, R., Leadbeater, A. J., Nevill, D. J., & Sozzi, D. (1990). CGA 173506: A new phenylpyrrole fungicide for broad-spectrum disease control. In Brighton Crop Protection Conference, …
[4] = not given; remark: listed apart in the source
[5] = not given; remark: listed apart in the source
[6] = not given; remark: listed apart in the source
[7] = method code SF, from DOI: 10.1016/s0223-5234(98)80007-x
[8] = method code SF-AS, from PMID: 582409; conditions: pH 7.4
[9] = method code SF-AS, from PMID: 1042; conditions: pH 7.4
[10] = not given; remark: listed apart in the source
[11] = method code SF-F, from DOI: 10.1021/js950367f, PMID: 8901074
[12] = method code SF-AS, from DOI: 10.1016/0378-5173(88)90083-x; conditions: pH 7.3
[13] = from Tomlinson, E.; Davis, S.; Parr, G.; James, M.; Farraj, N.; Kinkel, J.; Gaisser, D.; Wynne, H. (1986). The filter-probe extractor: a versatile tool for the rapid determination of solute oil/water …
[14] = not given; remark: listed apart in the source
[15] = method code SF, from DOI: 10.1002/ps.2780290303; conditions: pH 5.0
[16] = not given; remark: listed apart in the source
[17] = method code SF-HPLC, from DOI: 10.1002/ps.2780170106; conditions: pH 2.0
[18] = method code SF-AS, from DOI: 10.1016/0891-5849(92)90146-8, PMID: 1334029; conditions: pH 2.0
[19] = not given; remark: listed apart in the source
[20] = not given; remark: listed apart in the source
[21] = method code SF, from PMID: 7412765; conditions: pH 7.0
[22] = method code SF-AS, from DOI: 10.5012/bkcs.2007.28.7.1183
[23] = method code SF-AS, from PMID: 578762; conditions: pH 7.4
[24] = method code SF-AS, from DOI: 10.1016/0014-5793(79)80862-5, PMID: 478007
[25] = method code SF-HPLC, from DOI: 10.1016/0378-5173(95)00102-o
[26] = method code SF-AS, from DOI: 10.1016/j.ejmech.2007.07.011, PMID: 17869385; conditions: pH 7.4
[27] = method code SF, from DOI: 10.1021/jf60167a006
[28] = method code SF, from DOI: 10.1016/0223-5234(94)90060-4; conditions: pH 7.4
[29] = method code G-GLC, from DOI: 10.1021/es00171a006
[30] = method code SF, from DOI: 10.1021/jm00114a024, PMID: 1920362
[31] = not given; remark: listed apart in the source
[32] = method code SF-EIA, from DOI: 10.1016/j.carres.2004.12.038, PMID: 15797137
[33] = not given; remark: listed apart in the source
[34] = not given; remark: listed apart in the source
[35] = method code SF-GLC, from DOI: 10.1016/s0380-1330(82)71969-0
[36] = method code SF-GLC, from Hashimoto, S.; Schneider, S.; Yamamoto, T.; Morita, M. (1994). Aqueous solubility and octanol-water partition coefficient of 3,3',4,4'-tetrachloroazobenzene. 20, 125-128.
[37] = method code SF-AS, from DOI: 10.1111/j.2042-7158.1988.tb06996.x, PMID: 2907534; conditions: pH 7.0
[38] = not given; remark: listed apart in the source
[39] = method code SF-RC, from DOI: 10.1021/jf60204a016
[40] = from Afshan, A.; Jehangir, M.; Amin, W.; Mujahid, A. (2000). Study of various esters of ethylcysteine acid dimer as brain perfusion imaging agents and formulation into single vial kit for labelling with …; conditions: pH 7.5
[41] = method code SF, from DOI: 10.1016/0304-4165(80)90351-7, PMID: 6243999; conditions: pH 7.4
[42] = not given; remark: listed apart in the source
[43] = method code SF-RC, from DOI: 10.1016/j.nucmedbio.2008.01.001, PMID: 18355684; conditions: pH 7.4
[44] = method code SF-HPLC, from DOI: 10.1002/ps.2780440103; conditions: pH 2.0
[45] = method code SF-RC, from DOI: 10.1111/j.1399-3054.1990.tb08712.x
[46] = not given; remark: listed apart in the source
[47] = method code SF, from DOI: 10.1021/jm00151a007, PMID: 3941412; conditions: pH 9.0
[48] = pH 9.2
[49] = not given; remark: listed apart in the source

**Q.** With `CC(=O)NCC(=O)NN=Nc1ccc(C#N)cc1` as the compound, how does the logD [1] read?
**A.** Its logD is 1.1.

**Q.** With `Nc1nc(OCc2cccc(I)c2)c2nc[nH]c2n1` as the compound, how does the logD [2] read?
**A.** The logD was 2.2.

**Q.** With `O=C(O)CCCn1c(=O)oc2ccccc2c1=O` as the compound, how does the logP read?
**A.** The logP was 0.2.

**Q.** With `N#Cc1c[nH]cc1-c1cccc2c1OC(F)(F)O2` as the compound, how does the logP [3] read?
**A.** The logP was 2.6.

**Q.** With `CC1=C(C)C(O)N(c2ccccc2)C1=O` (stereo not given) as the compound, how does the logP [4] read?
**A.** Its logP is 1.63.

**Q.** Which logP [5] does the source give for `CCCCCOC(=O)c1ccc(O)cc1` here?
**A.** Its logP is 3.65.

**Q.** Which logP [6] does the source give for `CCC(N)C(=O)Nc1c(C)cccc1C` (stereo not given) here?
**A.** Its logP is 0.84.

**Q.** For `Cc1nc2n(c1C)CNc1ccccc1-2`, which logP [7] is on record?
**A.** Its logP is 2.07.

**Q.** With `Nc1nc(N)c2nc(-c3ccc(O)cc3)c(N)nc2n1` as the compound, how does the logD [8] read?
**A.** Its logD is 0.92.

**Q.** For `CCCCOc1ccc(CC(=O)NO)cc1`, which logD [9] is on record?
**A.** The logD was 2.08.

**Q.** For `CCC(O)(CCC(N)=O)c1ccccc1` (stereo not given), which logP [10] is on record?
**A.** Its logP is 2.11.

**Q.** Which logP [11] does the source give for `COc1c2ccoc2cc2oc(=O)ccc12` here?
**A.** Its logP is 2.

**Q.** With `O=C(c1ccc(Cl)cc1)c1cc(F)ccc1O` as the compound, how does the logD [12] read?
**A.** The logD was 4.05.

**Q.** Which logP [13] does the source give for `CNC(=O)[C@H](Cc1ccccc1)NC(C)=O` here?
**A.** Its logP is 0.5.

**Q.** With `Nc1nc(N)c2nc(-c3ccccc3)c(N)nc2n1` as the compound, how does the logP [14] read?
**A.** The logP was 1.24.

**Q.** For `COC(=O)c1sccc1S(=O)(=O)NC(=O)Nc1nc(OC)nc(OC)n1`, which logD [15] is on record?
**A.** Its logD is 0.52.

**Q.** For `COc1ccc(Cc2cnc(N)nc2N)cc1Cl`, which logP [16] is on record?
**A.** Its logP is 1.65.

**Q.** For `O=C(O)COc1cccc2ccccc12`, which logD [17] is on record?
**A.** Its logD is 2.6.

**Q.** For `CC(=O)C(=Cc1cc(O)c(O)c([N+](=O)[O-])c1)C(C)=O`, which logD [18] is on record?
**A.** Its logD is 1.21.

**Q.** For `CN1C(=O)NC(=O)C(C)(C2=CCCCC2)C1=O` (stereo not given), which logP [19] is on record?
**A.** Its logP is 1.71.

**Q.** With `CCNc1nc(NC(C)C(C)C)nc(SC)n1` (stereo not given) as the compound, how does the logP [20] read?
**A.** The logP was 3.76.

**Q.** With `CCCC(C)C1(CC)C(=O)NC(=O)NC1=O` (stereo not given) as the compound, how does the logD [21] read?
**A.** Its logD is 1.75.

**Q.** Which logP [22] does the source give for `Cc1cc(C)nc(NS(=O)(=O)c2ccc(N)cc2)n1` here?
**A.** Its logP is 0.21.

**Q.** With `CCOC(=O)/C=C1\SC(N2CCCC2)C(=O)N1C` (stereo not given) as the compound, how does the logD [23] read?
**A.** Its logD is 2.

**Q.** With `C#CC(C)N(C)C(=O)Nc1ccc(Cl)cc1` (stereo not given) as the compound, how does the logP [24] read?
**A.** The logP was 3.

**Q.** Which logP [25] does the source give for `CCCCCCOC(=O)c1cccnc1` here?
**A.** Its logP is 3.51.

**Q.** With `Cc1c(O)c(=O)ccn1CCCn1ccnc1` as the compound, how does the logD [26] read?
**A.** Its logD is -0.46.

**Q.** For `CCOP(=O)(OCC)Oc1ccc(S(C)(=O)=O)cc1`, which logP [27] is on record?
**A.** Its logP is 0.

**Q.** Which logD [28] does the source give for `CC(=O)Nc1ccn(C2CSC(COC(C)=O)O2)c(=O)n1` (stereo not given) here?
**A.** Its logD is 0.88.

**Q.** Which logP [29] does the source give for `Clc1c(Cl)c(Cl)c2c(oc3c(Cl)c(Cl)c(Cl)c(Cl)c32)c1Cl` here?
**A.** Its logP is 7.59.

**Q.** Which logP [30] does the source give for `CN(CCN)S(=O)(=O)c1ccc(C(C)(C)[N+](=O)[O-])c([N+](=O)[O-])c1` here?
**A.** Its logP is 0.62.

**Q.** Which logP [31] does the source give for `Clc1cc(Cl)c(-c2cc(Cl)c(Cl)cc2Cl)cc1Cl` here?
**A.** The logP was 6.67.

**Q.** Which logP [32] does the source give for `OC[C@H]1O[C@H](O[C@H]2O[C@H](CO)[C@@H](O)[C@H](O)[C@H]2O)[C@H](O)[C@@H](O)[C@@H]1O` here?
**A.** The logP was -3.76.

**Q.** Which logP [33] does the source give for `CCc1cccc2ccccc12` here?
**A.** The logP was 4.38.

**Q.** With `Cc1cccc2cccc(C)c12` as the compound, how does the logP [34] read?
**A.** The logP was 4.26.

**Q.** Which logP [35] does the source give for `Clc1cc(-c2ccccc2)c(Cl)c(Cl)c1Cl` here?
**A.** The logP was 5.9.

**Q.** For `Clc1ccc(/N=N/c2ccc(Cl)c(Cl)c2)cc1Cl`, which logP [36] is on record?
**A.** Its logP is 5.53.

**Q.** Which logD [37] does the source give for `CCC1(c2ccccc2)C(=O)NC(=O)NC1=O` here?
**A.** Its logD is 1.32.

**Q.** With `Clc1cc2c(oc3c(Cl)c(Cl)c(Cl)cc32)c(Cl)c1Cl` as the compound, how does the logP [38] read?
**A.** The logP was 6.6.

**Q.** Which logP [39] does the source give for `CC(C)c1onc2nc(C(C)(C)C)[nH]c(=O)c12` here?
**A.** Its logP is 2.34.

**Q.** For `CCOC(=O)[C@H](CS)NCCN[C@@H](CS)C(=O)OCC`, which logD [40] is on record?
**A.** Its logD is 1.4.

**Q.** With `CC(=O)NC1CC(C)(C)N(O)C(C)(C)C1` as the compound, how does the logD [41] read?
**A.** The logD was 0.52.

**Q.** Which logP [42] does the source give for `O=[N+]([O-])c1nccn1CC(O)COc1ccccc1` (stereo not given) here?
**A.** Its logP is 1.4.

**Q.** For `CCCSc1nsnc1C1=CCCN(C)C1`, which logD [43] is on record?
**A.** The logD was 2.9.

**Q.** With `O=C(O)[C@H]1O[C@@H](Oc2ccc([N+](=O)[O-])cc2)[C@H](O)[C@@H](O)[C@@H]1O` as the compound, how does the logD [44] read?
**A.** The logD was -0.75.

**Q.** Which logP [45] does the source give for `O=C(O)Cc1cccc2ccccc12` here?
**A.** The logP was 2.24.

**Q.** For `CC1(C)NC(=O)N(c2ccc([N+](=O)[O-])c(C(F)(F)F)c2)C1=O`, which logP [46] is on record?
**A.** The logP was 2.31.

**Q.** Which logD [47] does the source give for `CNc1c(NCCSCc2nc[nH]c2C)c(=O)c1=O` here?
**A.** The logD was -0.08.

**Q.** Which logD [48] does the source give for `CC(C)CNCNC(=O)c1ccccc1` here?
**A.** The logD was 1.73.

**Q.** With `CNC(=O)OCc1nc(SC)n(C)c1COC(=O)NC` as the compound, how does the logP [49] read?
**A.** Its logP is 0.74.
